Assay results reported in ChEMBL document CHEMBL1150920, “Three new ellagic acid derivatives from the bark of Eschweilera coriacea from the Suriname rainforest” (1998).

System: Saccharomyces cerevisiae
Assay: DNA damaging activity against Sc-7 yeast assessed as drug level required to produce 12 mm zone of inhibition
Format: functional

**Q.** Which IC12 does the source give for `C[C@@H]1O[C@@H](Oc2cc3c(=O)oc4c(O)c(O)cc5c(=O)oc(c2O)c3c45)[C@H](O)[C@H](O)[C@H]1O` [ESCHWEILENOL C] here?
**A.** 2000 µg/mL

**Q.** With `O=c1oc2c(O)c(Oc3ccc(O)c(O)c3O)cc3c(=O)oc4c(O)c(O)cc1c4c23` [ESCHWEILENOL A] as the compound, how does the IC12 read?
**A.** 1000 µg/mL
